Measured values taken from paper PMC11460632, “Chemical modification of hyaluronan oligosaccharides differentially modulates hyaluronan–hyaladherin interactions” (The Journal of Biological Chemistry, 2024).
Like-named read-outs stand apart in the source and are kept apart here.

Legend:
recombinant human TSG-6 = molecular target: T1, recombinant human TSG-6 (Homo sapiens, UniProt P19827+P98066); experiment: In vitro HC-transfer assay (IαI + rhTSG-6, Western blot anti-HC1); assay type: biochemical; settings: 15 μM HA, 1.8 μM IαI, rhTSG-6, 2 h at 37 °C
T1 construct: TSG-6–mediated HC-transfer assays (using full-length TSG6); purchased R&D Systems
Outline: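 HC transfer from human IαI (1.8 μM) onto unmodified or chemically modified HA oligosaccharides (15 μM), catalysed by recombinant human TSG-6 (2.8 μM), in 20 mM Hepes pH 7.5, 150 mM NaCl, 5 mM MgCl2. Products resolved by SDS-PAGE and detected by Western blot with anti-HC1 antiserum (near-IR fluorescence).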

Link_TSG6 [1] = molecular target: T2, Link_TSG6 (Homo sapiens, UniProt P98066); experiment: ITC of HA oligosaccharides binding to Link_TSG6
T2 construct: made in house
Outline: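 ITC at 25 °C in 5 mM MES pH 6.0, with 0.29 mM oligosaccharide titrated (18 injections) into 0.029 mM Link_TSG6. Heats of the last three injections subtracted for dilution. Data fit to a one-site model, four independent runs per oligosaccharide.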

hisCD44_HABD^20–169 = molecular target: T3, hisCD44_HABD^20–169 (Homo sapiens, UniProt P16070); experiment: MST of HA oligosaccharides binding to hisCD44_HABD^20–169
T3 construct: A novel construct consisting of residues 20 to 169 of human CD44 and an N-terminal six-histidine tag; made in house

Link_TSG6 [2] = test system: Link_TSG6; set-up: method as in PMID 24403066; settings: cited from earlier work
[3] = Table 1, ITC, 25 °C, 5 mM MES pH 6.0, mean ± SEM

T3 sequence (P16070 20-169): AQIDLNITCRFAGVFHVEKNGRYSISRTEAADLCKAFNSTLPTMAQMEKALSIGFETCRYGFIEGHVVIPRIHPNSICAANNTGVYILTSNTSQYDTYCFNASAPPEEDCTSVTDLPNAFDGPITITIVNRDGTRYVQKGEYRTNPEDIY
T2 sequence (P98066 36-129 limits assumed): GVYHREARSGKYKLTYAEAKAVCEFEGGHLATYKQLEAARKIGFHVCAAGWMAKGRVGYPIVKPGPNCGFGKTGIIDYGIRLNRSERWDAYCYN
T1 sequence (P98066 18-277): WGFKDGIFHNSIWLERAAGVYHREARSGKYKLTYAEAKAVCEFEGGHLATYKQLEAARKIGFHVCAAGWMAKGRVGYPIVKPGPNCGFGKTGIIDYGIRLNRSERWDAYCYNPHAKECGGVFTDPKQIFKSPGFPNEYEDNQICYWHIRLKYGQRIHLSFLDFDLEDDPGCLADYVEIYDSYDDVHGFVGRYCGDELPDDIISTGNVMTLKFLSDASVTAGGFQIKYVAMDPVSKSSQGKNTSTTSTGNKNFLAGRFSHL
T1 sequence (P19827 35-672 limits assumed): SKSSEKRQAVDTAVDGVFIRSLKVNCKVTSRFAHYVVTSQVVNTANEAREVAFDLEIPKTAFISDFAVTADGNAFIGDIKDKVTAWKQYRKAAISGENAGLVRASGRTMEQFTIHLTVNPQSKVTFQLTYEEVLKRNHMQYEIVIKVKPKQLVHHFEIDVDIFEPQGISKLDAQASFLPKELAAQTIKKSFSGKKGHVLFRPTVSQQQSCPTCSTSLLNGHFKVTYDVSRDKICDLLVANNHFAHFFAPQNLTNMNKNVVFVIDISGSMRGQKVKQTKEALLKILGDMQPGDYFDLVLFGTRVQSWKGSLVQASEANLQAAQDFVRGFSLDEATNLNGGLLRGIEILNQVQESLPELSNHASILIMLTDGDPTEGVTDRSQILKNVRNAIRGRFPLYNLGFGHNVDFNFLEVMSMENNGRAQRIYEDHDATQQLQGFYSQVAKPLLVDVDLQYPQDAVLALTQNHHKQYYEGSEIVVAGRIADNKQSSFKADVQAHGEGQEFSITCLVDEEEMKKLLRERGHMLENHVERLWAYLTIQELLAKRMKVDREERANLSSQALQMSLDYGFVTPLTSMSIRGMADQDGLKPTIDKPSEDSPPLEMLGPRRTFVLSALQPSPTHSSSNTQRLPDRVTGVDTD

For `CC(=O)N[C@H]1[C@H](O[C@H]2[C@H](O)[C@@H](O)[C@H](O[C@H]3[C@H](O)[C@@H](CO)O[C@@H](O[C@H]4[C@H](O)[C@@H](O)[C@H](O[C@H]5[C@H](O)[C@@H](CO)O[C@@H](O[C@H]6[C@H](O)[C@@H](O)[C@H](O[C@H]7[C@H](O)[C@@H](CO)OC(O)[C@@H]7NC(C)=O)O[C@@H]6C(=O)O)[C@@H]5NC(C)=O)O[C@@H]4C(=O)O)[C@@H]3NC(C)=O)O[C@@H]2C(=O)O)O[C@H](CO)[C@@H](O)[C@@H]1O[C@@H]1O[C@H](C(=O)O)[C@@H](O)[C@H](O)[C@H]1O` (stereo partly shown) [HA8^AN, reference compound], the “Substrate for HC transfer” value (recombinant human TSG-6; Table 6) was “Yes”, the “Activity as substrate for HC transfer (text)” value (recombinant human TSG-6; Western blot anti-HC1) was “acted as substrates” and the N (Link_TSG6 [1]; Table 1, ITC, 25 °C, 5 mM MES pH 6.0, 0.029 mM Link_TSG6, 0.29 mM oligosaccharide, mean ± SEM, four titrations) was 0.98 ± 0.01. For the same compound, the ΔG (Link_TSG6 [1]; [3]) was -8.89 ± 0.03 kcal/mol, the ΔH (Link_TSG6 [1]; [3]) was -7.26 ± 0.20 kcal/mol and the “−TΔS” value (Link_TSG6 [1]; [3]) was -1.63 ± 0.24 kcal/mol. For the same compound, the Kd (Link_TSG6 [1]; Table 1, ITC, 25 °C, 5 mM MES pH 6.0, mean ± SEM, four titrations, read-out: KD) was 0.31 ± 0.02 µM, the “−TΔS” value (Link_TSG6 [1]; Table 4, ITC, 25 °C, 5 mM MES pH 6.0, mean ± SEM) was −1.63 ± 0.24 kcal•mol^a1 and the “% Binding affinity Link_TSG6” value (Link_TSG6 [1]; Table 6, relative to unmodified oligosaccharide of the same length, by ITC) was 100%. For the same compound, the Kd (hisCD44_HABD^20–169; MST, read-out: KD for hisCD44_HABD^20–169) was about 50 µM, the “% HAn^AN: percentage of binding affinity (KB) compared to the unmodified oligosaccharide of the same length” value (hisCD44_HABD^20–169; Table 2, MST) was 100% and the Kd (hisCD44_HABD^20–169; Table 2, MST, 10 mM Hepes pH 7.5, 150 mM NaCl, 0.05% Tween-20, 25 °C, mean (±SD), three titrations, read-out: KD) was 51 µM. The “% HAx^AN: percentage of binding affinity (KB) compared to the unmodified oligosaccharide of the same length” value (hisCD44_HABD^20–169; Table 5, MST) was 100%, the Kd (hisCD44_HABD^20–169; Table 5, MST, 10 mM Hepes pH 7.5, 150 mM NaCl, 0.05% Tween-20, 25 °C, mean ± SD, three titrations, read-out: KD) was 51 ± 5 µM and the “% Binding affinity hisCD44_HABD^20–169” value (hisCD44_HABD^20–169; Table 6, relative to unmodified oligosaccharide of the same length, by MST) was 100%. The “Fold greater affinity for Link_TSG6 (compared to HA8^AN)” value (Link_TSG6 [2]) was 1.9 fold.
